# Results taken from patent US20120016014A1, “BENZOTHIOPHENE CARBOXAMIDE COMPOUNDS, COMPOSITION AND APPLICATIONS THEREOF” (INDIAN INSTITUTE OF SCIENCE, priority 2010, published 2012).
# Several values for one entry are separate records, joined by “and”; a condition that tells them apart may be missing. Equal values may be shown once. Read-outs that look alike come from different tables or passages of the source.
# What was measured:
# [1] = target: T1, purified PfENR (Plasmodium falciparum, UniProt Q9BH77); assay: PfENR inhibition, standard enzyme assay; format: biochemical
# T1 sequence (Q9BH77 22-432): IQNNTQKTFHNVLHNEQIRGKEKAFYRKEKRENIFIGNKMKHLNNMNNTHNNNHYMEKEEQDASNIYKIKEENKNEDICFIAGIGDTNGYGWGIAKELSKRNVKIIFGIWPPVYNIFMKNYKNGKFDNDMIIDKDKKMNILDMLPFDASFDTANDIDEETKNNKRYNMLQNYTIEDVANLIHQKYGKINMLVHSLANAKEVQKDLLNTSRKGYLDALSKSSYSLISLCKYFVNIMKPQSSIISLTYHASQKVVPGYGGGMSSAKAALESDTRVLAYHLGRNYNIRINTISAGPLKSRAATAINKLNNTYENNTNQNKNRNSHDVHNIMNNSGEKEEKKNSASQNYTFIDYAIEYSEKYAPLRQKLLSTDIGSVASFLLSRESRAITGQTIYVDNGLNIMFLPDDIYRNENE
# Protocol: (§1) PfENR activity was determined using standard assay described earlier.
# [2] = tested on: Plasmodium falciparum 3D7; assay: In vitro inhibition of P. falciparum 3D7 blood-stage parasites; format: cell-based; conditions: for Stage of parasite growth arrest / Parasites observed to be dead: 2.5 μM; for Stage of parasite growth arrest: added at ring stage, P. falciparum 3D7; for Parasites observed to be dead: synchronised ring stage culture of P. falciparum 3D7; for IC50: read-out: P. falciparum (IC50 μM)
# Protocol: Benzothiophene carboxamide derivatives of the present invention were checked for their anti-parasitic activity against 3D7 (chloroquine sensitive strain) in an in vitro culture. […] To find out parasite stage where these compounds act, synchronised ring stage culture of P. falciparum was treated with 2.5 μM concentration of compounds 6 and 7. […] When compounds 6 and 7 were added at the trophozoite stage the cells could not proceed to the schizont stage indicating the growth inhibition occurs at trophozoite stage.
# Synchronised culture of P. falciparum 3D7 was treated with 2.5 μM compound 10 and 11 at the ring stage.
# [3] = target: T1, purified PfENR; assay: PfENR inhibition kinetics, cofactor potency and progress curve analysis; format: biochemical
# Protocol: as §1
# The accumulation of product further decreased when compound 6 was preincubated with the enzyme (curve c). On addition of NAD+ to this reaction the rate of product accumulation further decreased (curve d).
# Progress curves for inhibition by varying concentrations of compounds 6 and 7 were examined in detail (FIGS. 16a and 16b). From the progress curve analyses, it was inferred that for each concentration of the inhibitors the initial and the steady state velocity decreased exponentially with time. At higher inhibitor concentration, steady state is reached rapidly with a decrease in steady state velocity (vs). […] Progress curves were analysed using equation 3a from which a series of Kobs values were obtained for each concentration of inhibitor.
# [4] = tested on: blood-stage P. berghei ANKA; assay: Experimental cerebral malaria in C57BL/6 mice; format: in vivo; conditions: for Relative efficacy in the route of administration study: 5 mg/kg body weight, 6 days treatment; for Mean Survival Days (Observed for 25 days): 5 mg/kg body weight daily for six days, C57BL/6 mice
# Protocol: C57BL/6 mice were infected with blood-stage P. berghei ANKA as discussed in the experimental section. After 24 hours of infection mice were treated intravenously with various doses of inhibitors. It was observed that all control mice developed hypothermia by day 2, ataxia and convulsions by day 3 and died by day 6, whereas inhibitor treated groups had considerably higher longevity (11-24 days). Though each group of mice developed hypothermia by day 4, convulsions and ataxia development were delayed in case of treated mice. […] The mice treated with 2.5 mg/kg body weight survived for 18 days. Even at or below 1 mg/kg body weight of inhibitor dose, the mice survived for 11 days, but paralysis and ataxia development occurred on Day 7.
# […]. The mice were treated for 6 days. […]. Chloroquine was used as the control drug. […].
# Therefore, compounds 10 and 11 were also administered at 5 mg/Kg body weight. The compounds were administered through intraperitoneal, peroral, subcutaneous and intravenous routes. Compound 10 and 11 were administered once daily for 6 days. […]. The mean survival days for this treatment group was 16 (FIG. 12c and Table III). […]. Chloroquine was used as the control drug.
# [5] = Tail flick latency test; conditions: 15 mg/kg b. wt. vs Ibuprofen 50 mg/kg b. wt., 30 min and 60 min post injection
# Protocol: Hot plate latency test was performed under red light on the metal surface of hot plate analgesia meter (IITC, Life science, CA). Animals were placed individually on the surface of hot plate maintained at a constant temperature 54±1° C. The anti-nociceptive response was latency recorded from the time when animal was placed on the heated surface until the behavior response show licking of hind paw to avoid thermal nociception. A maximum hot plate latency of 30 sec was used for each animal to prevent paw tissue damage. Base line nociceptive latency was obtained for each animal prior to any drug administration. Thereafter, groups of animals were treated with different concentration of different derivatives of benzothiophene and well known NSAIDs. […] Subsequent nociceptive response latency for each animal was determined at 30 and 60 min after drug administration. […] In continuation of tail flick latency assay, the anti-nociceptive effect of the compounds was monitored. Rats treated as described above were subjected to determination of thermal nociceptive pain. Rats were confined in restrainer and allowed to accommodate. The tail withdrawal test consisted of immersing the posterior 8-10 cm of the tail in hot water bath maintained at 54±1° C. Withdrawal latency for tail flicking was measured. A maximum tail flick latency of 20 sec was permitted to minimize tissue damage.
# [6] = tested on: liver stage of Plasmodium; conditions: Singh A. P. et al, IUBMB life 61, 923-928; read-out: IC50, inhibition of liver stage parasite development before invasion; cited from earlier work
# [7] = Hot plate latency test (thermal hyperalgesia); format: in vivo, rats; conditions: for Anti-nociceptive response, hot plate latency assay: known NSAIDs; for Analgesic activity compared with Ibuprofen, hot plate: compounds 15 mg/kg b. wt. vs Ibuprofen 50 mg/kg b. wt.; for MPE index, hot plate latency assay: 15 mg/kg b. wt. i.p., 30 and 60 min
# Protocol: The animals were housed in an animal house facility of National Institute of Immunology, India, with controlled temperature (22±2° C.) under a 12/12 h light/dark cycle. They had free access to food and water ad libitum. All experiments were conducted according to the guidelines of the international association for the study of pain and approved by the institutional ethical committee for animal research. All in vivo experiments were carried out on inbred male […] rats ( 200-320 g body weight). Same age and equal body weight of animals were used according to experiments. No animals were used for more than one experiment. Most popular non-steroidal anti-inflammatory drugs which are widely use for treatment of chronic and inflammatory pain, such as Ibuprofen, Naproxen, Ketoprofen, Aspirin, Nimesulide, Indomethacine were purchased from Cayman Chemicals, USA and used to evaluate the efficacy of drugs in animal model. These drugs and different derivatives of Benzothiophene were dissolved in minimum volume of Dimethyl sulfoxide (DMSO) and further diluted in Phosphate buffer saline prior to use. […] Withdrawal latency for tail flicking was measured. […] NSAIDs is commonly evaluated by hot plate latency assay whereby animals are exposed to thermal stimulus (54 degree […] time for hind paw licking is measured as behavioural response for pain.
# [8] = Mechanical hyperalgesia, Randall-Selitto, carrageenan induced; format: in vivo, rats; conditions: 15 mg/kg b wt., after 1 hrs, basal level in 5 hrs
# Protocol: Mechanical hyperalgesia was measured as hind limb withdrawal threshold in response to a mechanical stimulus applied to hind paws of rat using Randall-selitto meter, Randall and Selitto, 1957. To determine the mechanical hyperalgesia, the force was applied with increased pressure at a constant rate until the animal withdrew its limb. The base line nociceptive threshold was measured before induction of hyperalgesia. Moreover, hyperalgesia was induced by carrageenan and then groups of animal were treated with compound 4, compound 6 and compound 8 (15 mg/kg body weight) and Ibuprofen (50 mg/kg body weight). Control group was treated with physiological saline. […] The anti-nociceptive efficacy of the compounds has been evaluated the efficacy with paw withdrawal threshold latency of animals.
# [9] = Plasmodium falciparum, 3D7, Erythrocyte
# [10] = read-out: Inhibition of PfENR (IC50 μM)
# [11] = Erythrocyte, growth inhibition, red blood cell stages of Plasmodium falciparum 3D7 (chloroquine sensitive)
structure (smiles),measurement,setting,value
"O=C(NCc1ccc(C(F)(F)F)cc1)c1sc2ccccc2c1Br [Compound 7, N-(4-trifluorobenzyl)-3-bromobenzo[b]thiophene-2-carboxamide]",IC50,[1]; Inhibition of PfENR (IC50 μM),0.463 ± 0.1 µM
same,Stage of parasite growth arrest,[2],arrested at the trophozoite stage
same,Parasites observed to be dead,[2],~90%
same,IC50,[2]; [9],1.18 ± 0.2 µM
same,Ki,[3],0.0861 µM
same,Binding behaviour from progress curves,[3]; inhibitor 0-750 nM,slow tight binding behaviour
same,Isomerization rate constant (k5 * 10^−2) (s^−1),"[3]; purified PfENR, progress curves",1.65 ± .023 10^−2 s^−1
same,koff,[3]; read-out: Dissociation rate constant (k6* 10^−3) (s^−1),0.0069 ± 3e-07 s⁻¹
same,Relative efficacy in the route of administration study,[4],comparative activity to compound 6
same,Mean Survival Days (Observed for 25 days),[4]; Intraperitoneal,21 ± 1.3 days
same,Mean Survival Days (Observed for 25 days),[4]; Intravenous,24 ± 2.1 days
same,Mean Survival Days (Observed for 25 days),[4]; Per oral,11 ± 0.9 days
same,Mean Survival Days (Observed for 25 days),[4]; Subcutaneous,15 ± 1.2 days
same,"Anti-nociceptive response, tail flick latency assay",[5],better anti-nociceptive response than the Ibuprofen
O=C(O)c1sc2ccccc2c1Br [Compound 1],IC50,[1]; [10],1.68 ± 0.045 µM
same,IC50,[2]; [11],2.1 ± 0.4 µM
"COc1ccc(CNC(=O)c2sc3ccccc3c2Br)cc1 [Compound 5, N-(4-methoxybezyl)-3-bromobenzo[b]thiophene-2-carboxamide]",IC50,[1]; [10],31.99 ± 0.23 µM
same,IC50,[2]; [11],5.93 ± 0.3 µM
"Oc1cc(Cl)ccc1Oc1ccc(Cl)cc1Cl [Triclosan, reference compound]",IC50,[2]; [9],0.8 ± 0.1 µM
same,IC50,[6],6.8 µM
"CC(C)Cc1ccc(C(C)C(=O)O)cc1 (centres unmarked) [Ibuprofen, reference compound]","Anti-nociceptive response, hot plate latency assay","[7]; 50 mg/kg b. wt., 60 minutes post administration",better anti-nociceptive effect compared to other NSAIDs
same,"Anti-nociceptive response, hot plate latency assay","[7]; 30 minutes post administration, wistar rats",better anti-nociceptive drug as compared to other NSAIDs
"CCN(CC)CCCC(C)Nc1ccnc2cc(Cl)ccc12 (centres unmarked) [Chloroquine, reference compound]",Relative efficacy in the route of administration study,[4],more effective via intravenous and subcutaneous routes compared to oral administration
same,Mean Survival Days (Observed for 25 days),[4]; Intraperitoneal,20 ± 1.5 days
same,Mean Survival Days (Observed for 25 days),[4]; Intravenous,25 ± 2.1 days
same,Mean Survival Days (Observed for 25 days),[4]; Per oral,17 ± 1.4 days
same,Mean Survival Days (Observed for 25 days),[4]; Subcutaneous,21 ± 1.7 days
"O=C(NCc1cccc2ccccc12)c1sc2ccccc2c1Br [Compound 9, 3-bromo-N-(naphthalen-1-ylmethyl)-benzo[b]thiophene-2-carboxamide]",IC50,[1]; [10],52.56 ± 0.33 µM
same,IC50,[2]; [11],2.45 ± 0.9 µM
same,"Anti-nociceptive response, tail flick latency assay",[5],better anti-nociceptive response than the Ibuprofen
"O=C(NCCc1ccccc1)c1sc2ccccc2c1Br [Compound 8, 3-bromo-N-(2-phenylethyl)-benzo[b]thiophene-2-carboxamide]",IC50,[1]; [10],54.98 ± 0.42 µM
same,IC50,[2]; [11],2.46 ± 0.7 µM
same,"Analgesic activity compared with Ibuprofen, hot plate",[7],potent analgesic activity at much lower concentration than Ibuprofen
same,"Mechanical hyperalgesia, paw withdrawal threshold",[8],significantly reversed the mechanical hyperalgesia
same,"Anti-nociceptive response, tail flick latency assay",[5],better anti-nociceptive response than the Ibuprofen
"C=CCN(Cc1ccc(F)cc1)C(=O)c1sc2ccccc2c1Br [Compound 10, 3-bromo-N-(4-fluorobenzyl)-N-(prop-2-en-1-yl)-benzo[b]thiophene-2-carboxamide]",IC50,[1]; [10],51.98 ± 0.43 µM
same,Stage of parasite growth arrest,[2],arrested after 48 hours at the trophozoite stage
same,Parasites observed to be dead,[2],40%
same,IC50,[2]; [11],2.93 ± 1.2 µM
same,Mean Survival Days (Observed for 25 days),[4]; Intraperitoneal,11 ± 0.8 days
same,Mean Survival Days (Observed for 25 days),"[4]; Intravenous, 5 mg/kg",15 days and 15 ± 0.7 days
same,Mean Survival Days (Observed for 25 days),[4]; Per oral,7 ± 1.2 days
same,Mean Survival Days (Observed for 25 days),[4]; Subcutaneous,12 ± 1.6 days
same,"MPE index, hot plate latency assay",[7],less latency in comparison to other derivatives
"O=C(NCc1ccccc1)c1sc2ccccc2c1Br [Compound 4, N-benzyl-3-bromobenzo[b]thiophene-2-carboxamide]",IC50,[1]; [10],0.51 µM and 0.501 µM
same,IC50,[2]; [11],2 ± 0.5 µM
same,"Analgesic activity compared with Ibuprofen, hot plate",[7],potent analgesic activity at much lower concentration than Ibuprofen
same,"Mechanical hyperalgesia, paw withdrawal threshold",[8],significantly reversed the mechanical hyperalgesia
same,melting point,,115 to 117 °C
same,"Anti-nociceptive response, tail flick latency assay",[5],better anti-nociceptive response than the Ibuprofen
"C=CCN(Cc1ccc(C(F)(F)F)cc1)C(=O)c1sc2ccccc2c1Br [Compound 11, 3-bromo-N-(prop-2-en-1-yl)-N-[4-(trifluoromethyl)benzyl]-1-benzo[b]thiophene-2-carboxamide]",IC50,[1]; [10],52.48 ± 0.22 µM
same,Stage of parasite growth arrest,[2],arrested after 48 hours at the trophozoite stage
same,Parasites observed to be dead,[2],around 70%
same,IC50,[2]; [11],1.3 ± 0.1 µM
same,Mean Survival Days (Observed for 25 days),"[4]; Intraperitoneal, 5 mg/kg",10 ± 1.2 days
same,Mean Survival Days (Observed for 25 days),"[4]; Intraperitoneal, listed as compound 11, 5 mg/kg",10 days
same,Mean Survival Days (Observed for 25 days),"[4]; Intravenous, 5 mg/kg",16 ± 1.5 days
same,Mean Survival Days (Observed for 25 days),"[4]; Intravenous, listed as compound 11, 5 mg/kg",16 days
same,Mean Survival Days (Observed for 25 days),[4]; Per oral,7 ± .6 days
same,Mean Survival Days (Observed for 25 days),"[4]; Subcutaneous, 5 mg/kg",14 ± 1.2 days
same,Mean Survival Days (Observed for 25 days),"[4]; Subcutaneous, listed as compound 11, 5 mg/kg",14 days
same,"MPE index, hot plate latency assay",[7],less latency in comparison to other derivatives
